These compounds were tested against Wee1 kinase (Homo sapiens (Human), UniProt P30291) (assay: Wee1 Binding Assay (FRET)). Conditions: Wee1 kinase 2 nM, tracer 178 50 nM, 60 min at RT, read-out: Wee1 Enzymatic IC50.
Procedure: Wee 1 kinase was determined by using Flurorescence Resonance Energy Transfer (FRET) assay. […] The plate was shaken for 30 seconds, incubated for 60 min at RT, and recorded on fluorescence plate reader.

Wee1 kinase, sequence (P30291 whole entry): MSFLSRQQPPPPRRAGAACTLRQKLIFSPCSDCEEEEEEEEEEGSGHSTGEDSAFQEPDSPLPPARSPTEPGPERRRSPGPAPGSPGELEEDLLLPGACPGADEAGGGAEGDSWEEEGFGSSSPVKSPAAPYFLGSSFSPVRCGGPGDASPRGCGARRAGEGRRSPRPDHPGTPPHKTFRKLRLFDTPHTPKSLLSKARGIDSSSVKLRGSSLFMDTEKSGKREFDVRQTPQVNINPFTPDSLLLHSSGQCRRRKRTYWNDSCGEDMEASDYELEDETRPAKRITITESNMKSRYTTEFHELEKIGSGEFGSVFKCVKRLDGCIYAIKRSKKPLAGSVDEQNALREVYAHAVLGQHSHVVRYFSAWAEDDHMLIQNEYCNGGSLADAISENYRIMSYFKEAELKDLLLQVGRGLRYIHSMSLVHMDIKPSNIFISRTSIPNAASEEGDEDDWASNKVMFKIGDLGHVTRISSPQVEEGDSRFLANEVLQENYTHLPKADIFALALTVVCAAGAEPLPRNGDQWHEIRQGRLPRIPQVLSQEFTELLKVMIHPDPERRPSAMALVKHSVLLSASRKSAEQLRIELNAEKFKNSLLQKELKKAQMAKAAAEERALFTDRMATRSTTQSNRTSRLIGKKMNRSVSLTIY

| SMILES | IC50 [nM] |
| --- | --- |
| C=CCn1c(=O)c2cnc(Nc3ccc4c(c3)CN(C(C)C)CC43CC3)nc2n1-c1cccc(C(C)(C)O)n1 [Example 3, 2-Allyl-1-(6-(2-hydroxypropan-2-yl)pyridin-2-yl)-6-((2′-isopropyl-2′,3′-dihydro-1′H-spiro[cyclopropane-1,4′-isoquinolin]-7′-yl)amino)-1,2-dihydro-3H-pyrazolo[3,4-d]pyrimidin-3-one] | < 10 |
| C=CCn1c(=O)c2cnc(Nc3ccc4c(c3)CN(C(C)=O)CC43CC3)nc2n1-c1cccc(C(C)(C)O)n1 [Example 4, 6-((2′-Acetyl-2′,3′-dihydro-1′H-spiro[cyclopropane-1,4′-isoquinolin]-7′-yl)amino)-2-allyl-1-(6-(2-hydroxypropan-2-yl)pyridin-2-yl)-1,2-dihydro-3H-pyrazolo[3,4-d]pyrimidin-3-one] | < 10 |
| C=CCn1c(=O)c2cnc(Nc3ccc4c(c3)CN(C(C)C)CC4)nc2n1-c1cccc(C(C)(C)O)n1 [Example 10, 2-Allyl-1-(6-(2-hydroxypropan-2-yl)pyridin-2-yl)-6-((2-isopropyl-1,2,3,4-tetrahydroisoquinolin-7-yl)amino)-1,2-dihydro-3H-pyrazolo[3,4-d]pyrimidin-3-one] | < 10 |
| C=CCn1c(=O)c2cnc(Nc3ccc4c(n3)CN(C)CC4)nc2n1-c1cccc(C(C)(C)O)n1 [Example 24, 2-Allyl-1-(6-(2-hydroxypropan-2-yl)pyridin-2-yl)-6-((7-methyl-5,6,7,8-tetrahydro-1,7-naphthyridin-2-yl)amino)-1,2-dihydro-3H-pyrazolo[3,4-d]pyrimidin-3-one] | 10 to 100 |

Next, values leading:

| IC50 [nM] | SMILES |
| --- | --- |
| < 10 | C=CCn1c(=O)c2cnc(Nc3ccc4c(c3)[C@@H](C)NCC4(C)C)nc2n1-c1cccc(C(C)(C)O)n1 (single isomer, unassigned) [Example 29] |
| < 10 | C=CCn1c(=O)c2cnc(Nc3ccc4c(c3)[C@H](C)NCC4(C)C)nc2n1-c1cccc(C(C)(C)O)n1 (single isomer, unassigned) [Example 30] |
| < 10 | C=CCn1c(=O)c2cnc(Nc3cnc4c(c3)CN(C)CC4)nc2n1-c1cccc(C(C)(C)O)n1 [Example 25, 2-Allyl-1-(6-(2-hydroxypropan-2-yl)pyridin-2-yl)-6-((6-methyl-5,6,7,8-tetrahydro-1,6-naphthyridin-3-yl)amino)-1,2-dihydro-3H-pyrazolo[3,4-d]pyrimidin-3-one] |
| 10 to 100 | C=CCn1c(=O)c2cnc(Nc3ccc4c(n3)CCN(C)C4)nc2n1-c1cccc(C(C)(C)O)n1 [Example 26, 2-Allyl-1-(6-(2-hydroxypropan-2-yl)pyridin-2-yl)-6-((6-methyl-5,6,7,8-tetrahydro-1,6-naphthyridin-2-yl)amino)-1,2-dihydro-3H-pyrazolo[3,4-d]pyrimidin-3-one] |

These compounds were tested on H23 cells (assay: H23 Cellular Proliferation Assay (CellTiter-Glo)). Conditions: Homo sapiens, NCI-H23, 96 h, 4 days.
Assay type: cell-based
Procedure: Cells were treated with compounds diluted in DMSO and a 9 point 5-fold serial dilutions. Plates were placed in 37° C., 5% CO2 to incubate for 4 days. Before they were developed by adding 100 μL of CellTiter-Glo reagent (Promega) to the assay plate, plates were shaken briefly for 2 mins and allowed to incubate at RT for 10 mins. The plates are read with a M5e plate reader according to CellTiter-Glo protocol. The GraphPad Prism software was used to get IC50 values. The bottom of the plates was pasted with white back seal and luminescence was recorded with Enspire or Envision.

| SMILES | IC50 [nM] |
| --- | --- |
| C=CCn1c(=O)c2cnc(Nc3ccc4c(c3)[C@@H](C)NCC4(C)C)nc2n1-c1cccc(C(C)(C)O)n1 (single isomer, unassigned) [Example 29] | 100 to 1000 |
| C=CCn1c(=O)c2cnc(Nc3ccc4c(c3)[C@H](C)NCC4(C)C)nc2n1-c1cccc(C(C)(C)O)n1 (single isomer, unassigned) [Example 30] | < 100 |
| C=CCn1c(=O)c2cnc(Nc3ccc4c(c3)CN(C3COC3)CC4)nc2n1-c1cccc(C(C)(C)O)n1 [Example 14, 2-Allyl-1-(6-(2-hydroxypropan-2-yl)pyridin-2-yl)-6-((2-(oxetan-3-yl)-1,2,3,4-tetrahydroisoquinolin-7-yl)amino)-1,2-dihydro-3H-pyrazolo[3,4-d]pyrimidin-3-one] | 100 to 1000 |
| C=CCn1c(=O)c2cnc(Nc3ccc4c(c3)CCN(CCO)C4)nc2n1-c1cccc(C(C)(C)O)n1 [Example 17, 2-Allyl-6-((2-(2-hydroxyethyl)-1,2,3,4-tetrahydroisoquinolin-6-yl)amino)-1-(6-(2-hydroxypropan-2-yl)pyridin-2-yl)-1,2-dihydro-3H-pyrazolo[3,4-d]pyrimidin-3-one hydrogen chloride] | 100 to 1000 |
| C=CCn1c(=O)c2cnc(Nc3ccc4c(c3)CN(C)CC4(F)F)nc2n1-c1cccc(C(C)(C)O)n1 [Example 27, 2-Allyl-6-((4,4-difluoro-2-methyl-1,2,3,4-tetrahydroisoquinolin-7-yl)amino)-1-(6-(2-hydroxypropan-2-yl)pyridin-2-yl)-1,2-dihydro-3H-pyrazolo[3,4-d]pyrimidin-3-one] | > 1000 |

— patent publication US11124518B2, “L,2-dihydro-3H-pyrazolo[3,4-D]pyrimidin-3-one analogs” (Recurium IP Holdings, LLC, priority 2017, dated 2021)
